Results on 16 molecules are retold here after PubChem BioAssay (NCI).

“And” between values parts separate entries of the source, which are not always exact repeats. Equal entries are not always repeated.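 A five-concentration, 48-hour dose response in 96-well plates underlies each endpoint, interpolated linearly between surrounding concentrations. GI50 = concentration required for 50% inhibition of growth. The concentration for full growth arrest is given as TGI.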 Where only a bound is given, the exact number is not on record here.

Common to all, as to experiment: growth of human tumour cells (NCI), 48 h
In test [1] the test system is SN12C renal.
The test system of test [2] is A549 NSCLC.
Test [3] concerns MDA-MB-231 breast.
Test [4] has as its system M14 melanoma.
Test [5] concerns A498 renal.
In test [6] the test system is HCT-116 colon.
In test [7] the test system is T-47D breast.
Test [8] has as its system OVCAR-3 ovarian.
Test [9] deals with UO-31 renal.
The test system of test [10] is 786-0 renal.

`COc1ccc(-c2nc(-c3ccccc3)c(-c3ccccc3)n2C2CC2)cc1OC1CCCC1`: the GI50 was 128 µM in [1]; 48.7 µM in test [2]; more than 165 µM in [3]; 163 µM in test [4]; 9.57 µM in [5]; 14.1 µM in [6]. The GI50 was 51.5 µM in [7], 102 µM in test [8], 64.6 µM in test [9] and 98.2 µM in test [10]. Further, the TGI in test [1], in test [2], in test [3], in test [4], in test [5] and in [6] was more than 165 µM throughout. In addition, the TGI in [7], in test [8], in test [9] and in test [10] was more than 165 µM in each case.

`Cc1ccc2c(N)c(C(=O)N[C@H]3CCc4cc(N5CC6CCC(C5)N6)ccc4C3)sc2n1`: the GI50 in [1] is 0.263 µM; in test [2] it was 0.207 µM; in [3] it was 0.606 µM; in test [4], 0.307 µM; in test [5], 0.775 µM; in test [6] it was 0.251 µM. In addition, the GI50 in [7] is 0.497 µM; in test [8], 0.547 µM; in test [9], 0.577 µM; in test [10] it was 0.497 µM. Further, the TGI in [1] was found to be 1.8 µM; in test [2], 2.03 µM; in test [3], 2.71 µM; in test [4], 1.82 µM; in [5], 2.65 µM; in test [6], 3.44 µM. The TGI came to 3.55 µM in [7], 2.63 µM in test [8], 3.24 µM in test [9] and 3.86 µM in test [10].

For the molecule `COc1ccc(/C=C\c2cc(OC)c(OC)c(OC)c2)cc1OCC(=O)Nc1nc2ccc(C(F)(F)F)cc2s1`, the GI50 in test [1] was 4.43 µM; in [2], 4.46 µM; in test [3], 3.38 µM; in test [4], 3.59 µM; in test [5] it was 2.81 µM; in test [6], 3.29 µM. Also, the GI50 in test [7] was 4.79 µM; in [8] it was 2.11 µM; in test [9], 3.59 µM; in test [10], 6.69 µM. Moreover, the TGI was more than 100 µM in test [1]; more than 100 µM in test [2]; more than 100 µM in test [3]; more than 100 µM in [4]; 18.6 µM in [5]; more than 100 µM in test [6]. Moreover, the TGI in test [7] is more than 100 µM; in test [8], 4.51 µM; in [9] it was more than 100 µM; in [10], more than 100 µM.

With `CC(C)(O)C1OCC(C2CCC3(C)C4=CCC5C(C)(C)C(O)CCC5(C)C4CCC23C)CC1O` (configuration not stated), the TGI in [1] was 27.5 µM; in test [2], 31.8 µM; in test [3] it was 28.6 µM; in test [4], more than 100 µM; in [5] it was 30.4 µM; in [6] it was 27.6 µM. The TGI in [7] is 26.6 µM; in test [8], 40 µM; in test [9], 41.8 µM; in test [10], 27.3 µM.

With `O=c1cc(-c2ccccc2)nc2n1CCN2Cc1ccccc1`, the GI50 in test [1] was 32.2 µM; in [2], 35.2 µM; in test [3] it was 32.2 µM; in test [4] it was 37.9 µM; in [5], 10.1 µM; in test [6] it was 31.6 µM. The GI50 in test [7] is 65 µM; in [8], 27.3 µM; in test [9], 21.3 µM; in test [10] it was 39.7 µM. The TGI in test [1] was more than 100 µM; in test [2] it was more than 100 µM; in test [3] it was more than 100 µM; in [4] it was more than 100 µM; in test [5] it was 34.2 µM; in [6], more than 100 µM. For the same molecule, the TGI in test [7] is more than 100 µM; in test [8] it was 99.6 µM; in test [9], 74.7 µM; in test [10], more than 100 µM.

`O=[N+]([O-])/C=C/c1c[nH]c2ccccc12`: the GI50 in test [1] was 17.8 µM; in [2], 14 µM; in [3] it was 15.2 µM; in test [4], 2.35 µM; in test [5], 16.2 µM; in test [6], 3.32 µM. Moreover, the GI50 was 15 µM in test [7], 15.4 µM in [8], 13.4 µM in test [9] and 13.5 µM in test [10]. Besides, the TGI is 37.1 µM in test [1]; 31.7 µM in test [2]; 30.7 µM in [3]; 6.43 µM in [4]; 31.2 µM in test [5]; 11.3 µM in test [6]. For the same molecule, the TGI in test [7] was determined as 37.7 µM; in test [8] it was 33 µM; in test [9], 27.2 µM; in test [10] it was 27.2 µM.

For the molecule `C/C=C(\C)C(=O)O[C@H]1C=CC(=O)O[C@H]1CNC(=O)[C@H](C)O`, the GI50 in [1] is 18.9 µM; in [2], 31.1 µM; in test [3] it was 19.1 µM; in [4], 18.6 µM; in test [5] it was 22.8 µM; in test [6] it was 13.1 µM. Also, the GI50 in test [7] is 20 µM; in test [8], 17 µM; in [9], 16.9 µM; in test [10] it was 13.3 µM. Further, the TGI in test [1] is 40.3 µM; in test [2] it was more than 100 µM; in test [3] it was 36.3 µM; in test [4] it was 41 µM; in [5] it was 43.7 µM; in test [6], 26 µM. The TGI in [7] is 73.9 µM; in test [8], 30.9 µM; in test [9], 33.4 µM; in [10], 26.1 µM.

Turning to `COc1nc(C)cc2c(=O)n(-c3ccccc3)n(CCCN3CCN(c4ccc(Cl)cc4)CC3)c(=O)c12`, the GI50 was more than 50 µM in test [1]; 21.2 µM in [2]; 39.5 µM in test [3]; 46.6 µM in test [4]; more than 50 µM in test [5]; 27.5 µM in [6]. The GI50 in test [7] was more than 50 µM; in [8], 24.6 µM; in test [9], 31.9 µM; in test [10], 31.2 µM. In addition, the TGI in test [1], in test [2], in [3], in test [4], in test [5] and in test [6] was more than 50 µM in each case. Besides, the TGI in test [7], in [8], in test [9] and in test [10] was more than 50 µM each time.

With `COc1ccc(-c2nc(-c3cn(C)c4ncccc34)cs2)cc1`, the GI50 in test [1] is more than 100 µM; in [2] it was 76.1 µM; in [3], 75.3 µM; in test [4], 28.2 µM; in test [5], 0.776 µM; in [6] it was 38.4 µM. Further, the GI50 was 12.5 µM in test [7], 41.6 µM in test [8], more than 100 µM in [9] and 51.5 µM in test [10]. For the same molecule, the TGI is more than 100 µM in test [1]; more than 100 µM in test [2]; more than 100 µM in [3]; more than 100 µM in test [4]; 93.9 µM in test [5]; more than 100 µM in test [6]. Moreover, the TGI in test [7], in test [8], in test [9] and in test [10] was more than 100 µM throughout.

Regarding `O=C(NOCC1CC1)c1ccc(F)c(F)c1Nc1ccc(I)cc1Cl`, the GI50 in [1] is 1.63 µM; in [2], 1.41 µM; in test [3], 0.672 µM; in test [4], 0.0546 µM; in [5], 0.0639 µM; in test [6], 0.641 µM. Moreover, the GI50 is 3.15 µM in test [7], 2.62 µM in [8], 1.23 µM in [9] and 2.7 µM in test [10]. In addition, the TGI in test [1] is more than 100 µM; in [2], 13.2 µM; in [3], 14.7 µM; in test [4], 0.505 µM; in test [5] it was 0.492 µM; in test [6] it was 9.06 µM. Besides, the TGI in test [7] was more than 52.3 µM; in test [8], 7.54 µM; in test [9], 6.62 µM; in test [10] it was more than 35.1 µM.

Regarding `Cn1c(=O)c2[nH]c(CS(=O)(=O)Cc3nc4c([nH]3)c(=O)n(C)c(=O)n4C)nc2n(C)c1=O`, the TGI in test [1], in test [2], in test [3], in [4], in [5] and in test [6] was more than 100 µM throughout. For the same molecule, the TGI in test [7], in test [8], in test [9] and in [10] was more than 100 µM throughout.

For the molecule `S=C(Nc1ccc(Cl)cc1)Nc1ccc(-c2nc3ccccc3[nH]2)cc1`, the GI50 was 6.55 µM in [1]; 14.3 µM in test [2]; 3.14 µM in test [3]; 7.54 µM in test [4]; 23.6 µM in test [5]; 12.3 µM in [6]. For the same molecule, the GI50 was 5.34 µM in test [7], 1.33 µM in test [8], 5.86 µM in test [9] and 10.2 µM in test [10]. In addition, the TGI in [1] is 23.7 µM; in test [2], more than 54.3 µM; in test [3], 12.8 µM; in [4], more than 42 µM; in test [5] it was 55.5 µM; in test [6] it was 24.7 µM. In addition, the TGI was 32.7 µM in [7], more than 29.4 µM in [9] and 22.8 µM in [10].

`Cc1[nH]c(/C=C2\C(=O)Nc3ccc(F)cc32)c(C)c1C(=O)NC[C@H](O)CN1CCOCC1`: the GI50 in test [1] is 3.05 µM; in test [2], 6.02 µM; in [3], 4.25 µM; in [4] it was 0.943 µM; in test [5] it was 3.29 µM; in [6], 2.42 µM. Besides, the GI50 was more than 10 µM in test [7], more than 10 µM in [8], 1.47 µM in test [9] and 4.91 µM in [10]. For the same molecule, the TGI in test [1], in test [2], in test [3], in test [4], in test [5] and in test [6] was more than 10 µM throughout. The TGI in test [7], in [8], in test [9] and in test [10] was more than 10 µM in each case.

Regarding `COc1ccc(-c2cn[nH]c2-c2cc(OC)c(OC)c(OC)c2)cc1N`, the GI50 in test [1] was < 0.01 µM and 0.0802 µM; in [2] it was < 0.01 µM and 0.0425 µM; in [3], < 0.01 µM and 0.063 µM; in test [4], < 0.01 µM and 0.0247 µM; in test [5], less than 0.01 µM; in test [6], < 0.01 µM and 0.0344 µM. The GI50 in [7] is 17.1 µM and 25 µM; in [8], < 0.01 µM and 0.0281 µM; in test [9], 0.191 µM and 0.118 µM; in test [10], < 0.01 µM and 0.0611 µM. In addition, the TGI in test [1] was more than 100 µM; in test [2], more than 100 µM; in [3] it was more than 100 µM; in [4], more than 100 µM; in test [6], more than 100 µM; in test [7], 77.4 µM and > 100 µM. Moreover, the TGI in test [9] is more than 100 µM; in [10], 86.5 µM and > 56.6 µM.

With `COc1c(O)ccc2c1CN1CCc3cc4c(cc3C1C2)OCO4` (configuration not stated), the TGI in [1] is more than 84.4 µM; in test [2], more than 100 µM; in test [3] it was more than 100 µM; in [4], more than 100 µM; in [5], more than 78.9 µM; in test [6], more than 100 µM. For the same molecule, the TGI is more than 73.9 µM in test [7], more than 83.2 µM in [8], more than 100 µM in test [9] and more than 100 µM in [10].

As for `CC(=O)N1c2ccccc2Sc2cc(C(O)(C(F)(F)F)C(F)(F)F)ccc21`, the TGI in test [1], in [2], in test [3], in test [4], in [5] and in test [6] was more than 10 µM in each case. Also, the TGI in [7], in test [8], in [9] and in test [10] was more than 10 µM each time.
